Results as given in the NIST ThermoML archive (doi:10.1021/je8001305).
Numbers after ± are expanded uncertainties.

Test: xn = mol fraction of the nth substance listed
Conditions: Liquid, Vibrating tube method

CC(C)O [propan-2-ol] + O
Conditions	mass density [kg/m3]
300.08 K, 7 kPa, x1 = 0.2483	895.51 ± 0.9
300.08 K, 7.3 kPa, x1 = 0.7258	805.5 ± 0.81
300.08 K, 88.2 kPa, x1 = 0.7258	805.57 ± 0.81
300.08 K, 146.2 kPa, x1 = 0.2483	895.5 ± 0.9
300.08 K, 303 kPa, x1 = 0.7258	805.78 ± 0.82
300.08 K, 381.3 kPa, x1 = 0.2483	895.67 ± 0.9
300.08 K, 565.1 kPa, x1 = 0.7258	806 ± 0.82
300.08 K, 764.9 kPa, x1 = 0.2483	895.89 ± 0.9
300.08 K, 1101.1 kPa, x1 = 0.2483	896.11 ± 0.9
300.08 K, 1126.2 kPa, x1 = 0.7258	806.42 ± 0.82
300.08 K, 1556.8 kPa, x1 = 0.2483	896.32 ± 0.9
300.08 K, 1702.5 kPa, x1 = 0.7258	806.92 ± 0.82
300.08 K, 1921.9 kPa, x1 = 0.2483	896.56 ± 0.91
300.08 K, 2181.5 kPa, x1 = 0.2483	896.86 ± 0.91
300.08 K, 2239.8 kPa, x1 = 0.7258	807.33 ± 0.82
300.08 K, 2610.1 kPa, x1 = 0.2483	897.09 ± 0.91
300.08 K, 2722.7 kPa, x1 = 0.7258	807.73 ± 0.82
300.08 K, 3080.5 kPa, x1 = 0.2483	897.32 ± 0.91
300.08 K, 3196 kPa, x1 = 0.7258	808.11 ± 0.82
300.08 K, 3522.3 kPa, x1 = 0.2483	897.58 ± 0.91
300.08 K, 3715.6 kPa, x1 = 0.7258	808.53 ± 0.82
300.08 K, 4082.6 kPa, x1 = 0.2483	897.87 ± 0.91
300.08 K, 4231.5 kPa, x1 = 0.7258	808.93 ± 0.82
300.08 K, 4587.1 kPa, x1 = 0.7258	809.31 ± 0.82
300.08 K, 4663.3 kPa, x1 = 0.2483	898.17 ± 0.91
300.08 K, 5151.3 kPa, x1 = 0.2483	898.42 ± 0.91
300.08 K, 5314.6 kPa, x1 = 0.7258	809.85 ± 0.82
300.08 K, 5562.5 kPa, x1 = 0.2483	898.65 ± 0.91
300.08 K, 5793.2 kPa, x1 = 0.7258	810.24 ± 0.82
300.08 K, 5980.5 kPa, x1 = 0.2483	898.85 ± 0.91
300.08 K, 6301.2 kPa, x1 = 0.7258	810.63 ± 0.83
300.08 K, 6414.3 kPa, x1 = 0.2483	899.11 ± 0.91
300.08 K, 6754.8 kPa, x1 = 0.2483	899.33 ± 0.91
300.08 K, 6783.9 kPa, x1 = 0.7258	811.02 ± 0.83
300.08 K, 7246.8 kPa, x1 = 0.2483	899.56 ± 0.91
300.08 K, 7297.6 kPa, x1 = 0.7258	811.43 ± 0.83
300.08 K, 7636.7 kPa, x1 = 0.2483	899.78 ± 0.91
300.08 K, 7804.4 kPa, x1 = 0.7258	811.81 ± 0.83
300.08 K, 8131.6 kPa, x1 = 0.2483	900.04 ± 0.91
300.08 K, 8342.2 kPa, x1 = 0.7258	812.23 ± 0.83
300.08 K, 8662.8 kPa, x1 = 0.2483	900.28 ± 0.91
300.08 K, 8818 kPa, x1 = 0.7258	812.6 ± 0.83
300.08 K, 9087.3 kPa, x1 = 0.2483	900.54 ± 0.91
300.08 K, 9330.1 kPa, x1 = 0.7258	813 ± 0.83
300.08 K, 9562.3 kPa, x1 = 0.2483	900.79 ± 0.91
300.08 K, 9918.9 kPa, x1 = 0.7258	813.45 ± 0.83
300.1 K, 7.2 kPa, x1 = 0.4939	837.98 ± 0.85
300.1 K, 233.4 kPa, x1 = 0.4939	838.18 ± 0.85
300.1 K, 503 kPa, x1 = 0.4939	838.33 ± 0.85
300.1 K, 946.6 kPa, x1 = 0.4939	838.71 ± 0.85
300.1 K, 1545.3 kPa, x1 = 0.4939	839.06 ± 0.85
300.1 K, 1902.2 kPa, x1 = 0.4939	839.36 ± 0.85
300.1 K, 2303.5 kPa, x1 = 0.4939	839.65 ± 0.85
300.1 K, 2724.6 kPa, x1 = 0.4939	839.96 ± 0.85
300.1 K, 3136.5 kPa, x1 = 0.4939	840.26 ± 0.85
300.1 K, 3567.9 kPa, x1 = 0.4939	840.56 ± 0.85
300.1 K, 3995.8 kPa, x1 = 0.4939	840.87 ± 0.85
300.1 K, 4436.2 kPa, x1 = 0.4939	841.18 ± 0.85
300.1 K, 4835.5 kPa, x1 = 0.4939	841.48 ± 0.85
300.1 K, 5262 kPa, x1 = 0.4939	841.77 ± 0.85
300.1 K, 5699.8 kPa, x1 = 0.4939	842.07 ± 0.85
300.1 K, 6161 kPa, x1 = 0.4939	842.39 ± 0.86
300.1 K, 6588.4 kPa, x1 = 0.4939	842.68 ± 0.86
300.1 K, 7053 kPa, x1 = 0.4939	843 ± 0.86
300.1 K, 7437.9 kPa, x1 = 0.4939	843.28 ± 0.86
300.1 K, 7862 kPa, x1 = 0.4939	843.57 ± 0.86
300.1 K, 8248.5 kPa, x1 = 0.4939	843.86 ± 0.86
300.1 K, 8704.4 kPa, x1 = 0.4939	844.15 ± 0.86
300.1 K, 9260.6 kPa, x1 = 0.4939	844.49 ± 0.86
300.1 K, 9966.4 kPa, x1 = 0.4939	845.04 ± 0.86
325.09 K, 28.6 kPa, x1 = 0.4939	814.94 ± 0.83
325.09 K, 65.4 kPa, x1 = 0.4939	814.96 ± 0.83
325.09 K, 303 kPa, x1 = 0.4939	815.2 ± 0.83
325.09 K, 645.3 kPa, x1 = 0.4939	815.47 ± 0.83
325.09 K, 1004.8 kPa, x1 = 0.4939	815.8 ± 0.83
325.09 K, 1391.9 kPa, x1 = 0.4939	816.13 ± 0.83
325.09 K, 1788.1 kPa, x1 = 0.4939	816.48 ± 0.83
325.09 K, 2242 kPa, x1 = 0.4939	816.83 ± 0.83
325.09 K, 2881.1 kPa, x1 = 0.4939	817.33 ± 0.83
325.09 K, 3904.6 kPa, x1 = 0.4939	818.19 ± 0.83
325.09 K, 4242.1 kPa, x1 = 0.4939	818.51 ± 0.83
325.09 K, 4784.4 kPa, x1 = 0.4939	818.94 ± 0.83
325.09 K, 5116.8 kPa, x1 = 0.4939	819.26 ± 0.83
325.09 K, 5507.3 kPa, x1 = 0.4939	819.61 ± 0.83
325.09 K, 5912.2 kPa, x1 = 0.4939	819.93 ± 0.83
325.09 K, 6322.1 kPa, x1 = 0.4939	820.28 ± 0.84
325.09 K, 6773 kPa, x1 = 0.4939	820.6 ± 0.84
325.09 K, 7214.5 kPa, x1 = 0.4939	820.97 ± 0.84
325.09 K, 7613.3 kPa, x1 = 0.4939	821.31 ± 0.84
325.09 K, 8080.5 kPa, x1 = 0.4939	821.7 ± 0.84
325.09 K, 8603.1 kPa, x1 = 0.4939	822.11 ± 0.84
325.09 K, 9197.3 kPa, x1 = 0.4939	822.51 ± 0.84
325.09 K, 9561.4 kPa, x1 = 0.4939	822.86 ± 0.84
325.1 K, 27.3 kPa, x1 = 0.2483	874.07 ± 0.88
325.1 K, 72.6 kPa, x1 = 0.2483	874.13 ± 0.88
325.1 K, 410.3 kPa, x1 = 0.2483	874.37 ± 0.88
325.1 K, 962.1 kPa, x1 = 0.2483	874.71 ± 0.88
325.1 K, 1343 kPa, x1 = 0.2483	875.01 ± 0.88
325.1 K, 1859.5 kPa, x1 = 0.2483	875.37 ± 0.89
325.1 K, 2332.6 kPa, x1 = 0.2483	875.6 ± 0.89
325.1 K, 2826.4 kPa, x1 = 0.2483	875.91 ± 0.89
325.1 K, 3319.4 kPa, x1 = 0.2483	876.24 ± 0.89
325.1 K, 3776.3 kPa, x1 = 0.2483	876.52 ± 0.89
325.1 K, 4236.7 kPa, x1 = 0.2483	876.83 ± 0.89
